Measurements as given in patent US5401490A, “Markers of tissue hypoxia” (priority 1989, dated 1995).
Read-outs that look alike come from different tables or passages of the source.

Assay: Tissue distribution of radioactivity after intravenous injection
Assay type: in vivo, BALB/C mice
Conditions: mouse, iv, i.v.; for tissue uptake at 0.5 h: 0.50 h
Source text: Tables 1 and 2 show the percent of injected IAZG and IAZA respectively per gram of wet tissue for selected tissues excised from BALB/C mice bearing EMT-6 tumors. This tumor model is known to have a high hypoxic fraction (0.33) (16). […] Hepatobiliary excretion may play a role in blood clearance as evidenced by elevated liver radioactivity and the appearance of activity in the intestine. Some oxidative or reductive metabolites of the 2-nitroimidazoles may also become bound to liver tissue, as was postulated in an in vivo study with ^14 C-MISO (6). This supposition is supported by the persistence of liver radioactivity at longer time periods. […] At 8 and 24 hours thyroid levels of IAZG are 7.2 and 30.9% of the total body activity and for IAZA they are 7.9 and 33.8% of total body activity. EXAMPLE 11 TISSUE DISTRIBUTION AND EXCRETION Tumor propagation of EMT-6 tumors in BALB/C mice was accomplished by subcutaneous injection of a cell suspension (10^5 cells in 0.1 mL) as described previously (10). Tumors reached about 10 mm in diameter (≈0.5 g) at 12 to 14 days, at which time each animal was given a bolus intravenous injection of ^125 I-labelled test drug via the tail vein (40 to 60 kBq in 0.1 mL). At set time periods the animals were asphyxiated with CO2 and exsanguinated via cardiac puncture. Tissues were dissected, weighed wet into vials and counted for ^125 I-activity. Whole-body activity was determined by summation of total activity in tissues and in residual carcass, and blood activity was determined from the blood aliquot, assuming blood to be 6.5% of the total body weight. EXAMPLE 12 Male BALB/c mice (20-25 g) were inoculated subcutaneously in the left flank with a suspension of murine EMT-6 cells (10^5 cells in 0.1 mL) (14). After 12 to 14 days, when the tumors reached the desired size (8-10 mm diameter), each mouse received a single intravenous (iv) injection of ^125 I-IAZA (59 kBq in 0.1 mL). […] Heart, lung, liver, spleen, muscle, bone, thyroid, kidney, stomach, small intestine, tail, tumor and skin were removed upon necropsy, weighed and analyzed for ^125 I using a Beckman Model 8000 gamma scintillation counter. The remaining carcass mass was also weighed and radioassayed.

[1] = blood, read-out: Percent of Injected Dose per Gram, Blood
[2] = bone, read-out: Percent of Injected Dose per Gram, Bone
[3] = carcass, read-out: Percent of Injected Dose per Gram, Carcass
[4] = heart, read-out: Percent of Injected Dose per Gram, Heart
[5] = intestine, read-out: Percent of Injected Dose per Gram, Intestine
[6] = kidney, read-out: Percent of Injected Dose per Gram, Kidney
[7] = liver, read-out: Percent of Injected Dose per Gram, Liver
[8] = lung, read-out: Percent of Injected Dose per Gram, Lung
[9] = muscle, read-out: Percent of Injected Dose per Gram, Muscle
[10] = spleen, read-out: Percent of Injected Dose per Gram, Spleen
[11] = stomach, read-out: Percent of Injected Dose per Gram, Stomach
[12] = tumor, read-out: Percent of Injected Dose per Gram, Tumor

Molecule O=[N+]([O-])c1nccn1[C@@H]1O[C@H](CI)[C@@H](O)[C@@H]1O [IAZA, 1-(5-iodo-5-deoxy-β-D-arabino-furanosyl)-2-nitroimidazole] has a tissue uptake at 0.25 h [1] of 2.63 ± 0.28 %ID/g, a tissue uptake at 0.5 h [1] of 2.17 ± 0.85 %ID/g and a tissue uptake at 1 h [1] of 1.84 ± 0.72 %ID/g. It also gave a tissue uptake at 2 h [1] of 0.91 ± 1.56 %ID/g, a tissue uptake at 4 h [1] of 0.45 ± 1.24 %ID/g and a tissue uptake at 8 h [1] of 0.14 ± 0.07 %ID/g. The tissue uptake at 24 h [1] was 0.037 ± 0.047 %ID/g, the tissue uptake at 0.25 h [2] was 1.31 ± 0.18 %ID/g and the tissue uptake at 0.5 h [2] was 1.37 ± 0.57 %ID/g. For the same molecule, the tissue uptake at 1 h [2] was 1.15 ± 0.52 %ID/g, the tissue uptake at 2 h [2] was 0.58 ± 0.26 %ID/g and the tissue uptake at 4 h [2] was 0.27 ± 0.09 %ID/g. For the same molecule, the tissue uptake at 8 h [2] was 0.08 ± 0.03 %ID/g, the tissue uptake at 24 h [2] was 0.022 ± 0.03 %ID/g and the tissue uptake at 0.25 h [3] was 2.68 ± 0.44 %ID/g. For the same molecule, the tissue uptake at 0.5 h [3] was 2.55 ± 0.37 %ID/g, the tissue uptake at 1 h [3] was 2.23 ± 0.91 %ID/g and the tissue uptake at 2 h [3] was 1.46 ± 0.29 %ID/g. The tissue uptake at 4 h [3] was 0.89 ± 0.52 %ID/g, the tissue uptake at 8 h [3] was 0.28 ± 0.12 %ID/g and the tissue uptake at 24 h [3] was 0.038 ± 0.016 %ID/g. For the same molecule, the tissue uptake at 0.25 h [4] was 4.69 ± 0.91 %ID/g, the tissue uptake at 0.5 h [4] was 3.56 ± 0.66 %ID/g and the tissue uptake at 1 h [4] was 2.78 ± 1.3 %ID/g. For the same molecule, the tissue uptake at 2 h [4] was 1.03 ± 0.43 %ID/g, the tissue uptake at 4 h [4] was 0.32 ± 0.24 %ID/g and the tissue uptake at 8 h [4] was 0.22 ± 0.05 %ID/g. For the same molecule, the tissue uptake at 24 h [4] was 0.042 ± 0.017 %ID/g, the tissue uptake at 0.25 h [5] was 5.42 ± 1.03 %ID/g and the tissue uptake at 0.5 h [5] was 4.44 ± 0.62 %ID/g. The tissue uptake at 1 h [5] was 4.63 ± 1.92 %ID/g, the tissue uptake at 2 h [5] was 1.73 ± 0.55 %ID/g and the tissue uptake at 4 h [5] was 0.81 ± 0.46 %ID/g. For the same molecule, the tissue uptake at 8 h [5] was 0.77 ± 0.36 %ID/g, the tissue uptake at 24 h [5] was 0.041 ± 0.016 %ID/g and the tissue uptake at 0.25 h [6] was 6.56 ± 0.63 %ID/g. For the same molecule, the tissue uptake at 0.5 h [6] was 5.67 ± 0.95 %ID/g, the tissue uptake at 1 h [6] was 4.38 ± 1.25 %ID/g and the tissue uptake at 2 h [6] was 1.8 ± 0.61 %ID/g. The tissue uptake at 4 h [6] was 0.66 ± 0.39 %ID/g, the tissue uptake at 8 h [6] was 0.34 ± 0.06 %ID/g and the tissue uptake at 24 h [6] was 0.52 ± 0.004 %ID/g. The tissue uptake at 0.25 h [7] was 8.65 ± 1.02 %ID/g, the tissue uptake at 0.5 h [7] was 7.14 ± 1.13 %ID/g and the tissue uptake at 1 h [7] was 5.63 ± 2.27 %ID/g. It also gave a tissue uptake at 2 h [7] of 2.18 ± 0.8 %ID/g, a tissue uptake at 4 h [7] of 0.95 ± 0.58 %ID/g and a tissue uptake at 8 h [7] of 0.47 ± 0.1 %ID/g. It also gave a tissue uptake at 24 h [7] of 0.098 ± 0.008 %ID/g, a tissue uptake at 0.25 h [8] of 4.61 ± 0.82 %ID/g and a tissue uptake at 0.5 h [8] of 3.77 ± 0.67 %ID/g. For the same molecule, the tissue uptake at 1 h [8] was 2.99 ± 1.41 %ID/g, the tissue uptake at 2 h [8] was 1.15 ± 0.38 %ID/g and the tissue uptake at 4 h [8] was 0.45 ± 0.3 %ID/g. The tissue uptake at 8 h [8] was 0.33 ± 0.07 %ID/g, the tissue uptake at 24 h [8] was 0.037 ± 0.008 %ID/g and the tissue uptake at 0.25 h [9] was 3.09 ± 0.67 %ID/g. For the same molecule, the tissue uptake at 0.5 h [9] was 2.77 ± 0.54 %ID/g, the tissue uptake at 1 h [9] was 2.19 ± 1.03 %ID/g and the tissue uptake at 2 h [9] was 0.69 ± 0.29 %ID/g. The tissue uptake at 4 h [9] was 0.24 ± 0.12 %ID/g, the tissue uptake at 8 h [9] was 0.36 ± 0.31 %ID/g and the tissue uptake at 24 h [9] was 0.02 ± 0.004 %ID/g. The tissue uptake at 0.25 h [10] was 3.57 ± 0.67 %ID/g, the tissue uptake at 0.5 h [10] was 3 ± 0.62 %ID/g and the tissue uptake at 1 h [10] was 2.48 ± 1.25 %ID/g. For the same molecule, the tissue uptake at 2 h [10] was 0.93 ± 0.37 %ID/g, the tissue uptake at 4 h [10] was 0.35 ± 0.2 %ID/g and the tissue uptake at 8 h [10] was 0.18 ± 0.04 %ID/g. The tissue uptake at 24 h [10] was 0.036 ± 0.034 %ID/g, the tissue uptake at 0.25 h [11] was 4.36 ± 0.7 %ID/g and the tissue uptake at 0.5 h [11] was 4.75 ± 1.05 %ID/g. The tissue uptake at 1 h [11] was 3.95 ± 0.93 %ID/g, the tissue uptake at 2 h [11] was 3.3 ± 0.93 %ID/g and the tissue uptake at 4 h [11] was 1.81 ± 1.6 %ID/g. It also gave a tissue uptake at 8 h [11] of 0.87 ± 0.54 %ID/g, a tissue uptake at 24 h [11] of 0.067 ± 0.014 %ID/g and a tissue uptake at 0.25 h [12] of 2.55 ± 0.86 %ID/g. The tissue uptake at 0.5 h [12] was 3.48 ± 0.46 %ID/g, the tissue uptake at 1 h [12] was 2.7 ± 0.39 %ID/g and the tissue uptake at 2 h [12] was 2.55 ± 1.65 %ID/g. The tissue uptake at 4 h [12] was 2.08 ± 0.27 %ID/g, the tissue uptake at 8 h [12] was 1.22 ± 0.24 %ID/g and the tissue uptake at 24 h [12] was 0.206 ± 0.23 %ID/g.
